Experimental data published in ChEMBL document CHEMBL1147785, “Novel peptidomimetic cysteine protease inhibitors as potential antimalarial agents” (J Med Chem, 2006).
Active and inactive are the calls of the source. Residues, ends and D or L forms follow the SMILES beside them. *: point of attachment. Cbz = O=C(OCc1ccccc1)*

Experiments:
Caspase-9 (Homo sapiens) = molecular target: T1, Caspase-9 (Homo sapiens) (UniProt P55211); experiment: Inhibition of human recombinant caspase9 upto 50 uM
T1 sequence (whole entry): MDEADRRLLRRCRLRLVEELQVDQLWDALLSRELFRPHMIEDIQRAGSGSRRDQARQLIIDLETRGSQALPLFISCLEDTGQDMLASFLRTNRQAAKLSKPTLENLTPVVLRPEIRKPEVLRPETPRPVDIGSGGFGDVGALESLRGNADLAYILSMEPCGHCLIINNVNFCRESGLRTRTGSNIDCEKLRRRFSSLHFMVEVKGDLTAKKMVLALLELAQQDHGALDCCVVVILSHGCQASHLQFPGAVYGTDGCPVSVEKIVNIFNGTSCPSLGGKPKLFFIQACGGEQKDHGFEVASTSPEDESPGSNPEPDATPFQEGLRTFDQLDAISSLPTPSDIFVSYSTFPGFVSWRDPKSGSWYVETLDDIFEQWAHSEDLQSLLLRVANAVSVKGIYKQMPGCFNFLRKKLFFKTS

Caspase-5 (Homo sapiens) = molecular target: T2, Caspase-5 (Homo sapiens) (UniProt P51878); experiment: Inhibition of human recombinant caspase5 upto 50 uM
T2 sequence (whole entry): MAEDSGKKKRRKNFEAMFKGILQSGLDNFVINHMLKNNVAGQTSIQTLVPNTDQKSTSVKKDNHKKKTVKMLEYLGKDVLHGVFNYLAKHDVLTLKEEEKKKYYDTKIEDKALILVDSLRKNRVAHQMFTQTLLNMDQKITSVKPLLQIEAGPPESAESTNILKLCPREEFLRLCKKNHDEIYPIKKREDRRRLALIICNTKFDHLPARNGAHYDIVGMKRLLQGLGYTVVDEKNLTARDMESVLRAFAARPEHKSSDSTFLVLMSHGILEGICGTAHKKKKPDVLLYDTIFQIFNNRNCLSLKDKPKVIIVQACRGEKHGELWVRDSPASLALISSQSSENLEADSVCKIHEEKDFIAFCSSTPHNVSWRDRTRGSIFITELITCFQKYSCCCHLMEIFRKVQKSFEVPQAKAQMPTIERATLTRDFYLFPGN

Caspase-4 (Homo sapiens) = molecular target: T3, Caspase-4 (Homo sapiens) (UniProt P49662); experiment: Inhibition of human recombinant caspase4 upto 50 uM
T3 sequence (whole entry): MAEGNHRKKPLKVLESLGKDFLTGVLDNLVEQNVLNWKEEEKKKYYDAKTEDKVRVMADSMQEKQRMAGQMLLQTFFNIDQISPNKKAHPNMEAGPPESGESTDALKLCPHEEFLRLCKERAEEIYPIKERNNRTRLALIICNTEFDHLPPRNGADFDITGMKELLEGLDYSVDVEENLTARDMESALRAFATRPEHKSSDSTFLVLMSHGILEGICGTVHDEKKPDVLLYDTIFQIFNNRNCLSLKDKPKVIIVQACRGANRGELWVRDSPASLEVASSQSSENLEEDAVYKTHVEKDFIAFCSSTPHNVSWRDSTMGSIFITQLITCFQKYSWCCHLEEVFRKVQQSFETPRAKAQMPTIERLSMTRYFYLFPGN

Measured: Activity

Cc1cc(Cl)ccc1NC(=O)OC[C@H]1N=C(c2ccccc2)c2ccccc2N(CC(=O)N[C@H]2CC(=O)OC2O)C1=O (stereo partly drawn)
inactive: Caspase-9 (Homo sapiens) | Caspase-5 (Homo sapiens) | Caspase-4 (Homo sapiens)

O=C(CN1C(=O)[C@@H](COC(=O)Nc2cccc3ccccc23)N=C(c2ccccc2)c2ccccc21)N[C@H]1CC(=O)OC1O (stereo partly drawn)
inactive: Caspase-9 (Homo sapiens) | Caspase-5 (Homo sapiens) | Caspase-4 (Homo sapiens)

O=C(CN1C(=O)[C@@H](COC(=O)Nc2c(F)cc(F)cc2Br)N=C(c2ccccc2)c2ccccc21)N[C@H]1CC(=O)OC1O (stereo partly drawn)
inactive: Caspase-9 (Homo sapiens) | Caspase-5 (Homo sapiens) | Caspase-4 (Homo sapiens)

CC(C)[C@H](NC(=O)OCc1ccccc1)C(=O)N[C@H](C=O)Cc1ccccc1 (Cbz-Val-Phe-aldehyde)
inactive: Caspase-9 (Homo sapiens) | Caspase-5 (Homo sapiens) | Caspase-4 (Homo sapiens)

O=C(CN1C(=O)[C@@H](COC(=O)Nc2ccc(Cl)cc2C(F)(F)F)N=C(c2ccccc2)c2ccccc21)N[C@H]1CC(=O)OC1O (stereo partly drawn)
inactive: Caspase-9 (Homo sapiens) | Caspase-5 (Homo sapiens) | Caspase-4 (Homo sapiens)

O=C(CN1C(=O)[C@@H](COC(=O)Nc2ccc(Cl)cc2)N=C(c2ccccc2)c2ccccc21)N[C@H]1CC(=O)OC1O (stereo partly drawn)
inactive: Caspase-9 (Homo sapiens) | Caspase-5 (Homo sapiens) | Caspase-4 (Homo sapiens)

O=C(CN1C(=O)[C@@H](COC(=O)Nc2ccccc2)N=C(c2ccccc2)c2ccccc21)N[C@H]1CC(=O)OC1O (stereo partly drawn)
inactive: Caspase-9 (Homo sapiens) | Caspase-5 (Homo sapiens) | Caspase-4 (Homo sapiens)

O=C(CN1C(=O)[C@H](COC(=O)Nc2ccc(Cl)cc2C(F)(F)F)N=C(c2ccccc2)c2ccccc21)N[C@H]1CC(=O)OC1O (stereo partly drawn)
inactive: Caspase-9 (Homo sapiens) | Caspase-5 (Homo sapiens) | Caspase-4 (Homo sapiens)

O=C(CN1C(=O)[C@@H](COC(=O)Nc2ccc(F)cc2F)N=C(c2ccccc2)c2ccccc21)N[C@H]1CC(=O)OC1O (stereo partly drawn)
inactive: Caspase-9 (Homo sapiens) | Caspase-5 (Homo sapiens) | Caspase-4 (Homo sapiens)

O=C(CN1C(=O)[C@@H](COC(=O)Nc2ccc(F)cc2)N=C(c2ccccc2)c2ccccc21)N[C@H]1CC(=O)OC1O (stereo partly drawn)
inactive: Caspase-9 (Homo sapiens) | Caspase-5 (Homo sapiens) | Caspase-4 (Homo sapiens)

COc1ccc(NC(=O)OC[C@H]2N=C(c3ccccc3)c3ccccc3N(CC(=O)N[C@H]3CC(=O)OC3O)C2=O)cc1 (stereo partly drawn)
inactive: Caspase-9 (Homo sapiens) | Caspase-5 (Homo sapiens) | Caspase-4 (Homo sapiens)
